Test results from patent US8247211B2, “Glycopeptide antibiotics” (American Cyanamid Company, priority 2001, dated 2012).

Columns and labels:
Test in all cases: In vitro antibacterial evaluation: minimum inhibitory concentration (MIC), broth dilution method
Type in all cases: cell-based
Streptococcus sp. = system: Streptococcus sp.
Method in brief: (§1)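 Using Muller-Hinton II […] and an inoculum of 5×10^5 CFU/mL, antibiotic dilutions from 64 down to 0.06 μg/mL were tested following NCCLS M7-A2. The MIC is the lowest concentration inhibiting growth, including in methicillin-, penicillin- or vancomycin-resistant clinical isolates.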

Escherichia coli = system: Escherichia coli
Method in brief: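 MIC read as lowest drug level preventing visible growth. Organisms at 5×10^5 CFU/mL were exposed to a 64-0.06 μg/mL dilution series in Muller-Hinton II […] following NCCLS broth dilution standard M7-A2.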

Staphylococcus sp. = system: Staphylococcus sp.
Method in brief: as §1

Enterococcus sp. = system: Enterococcus sp.
Method in brief: as §1

[1] = broth dilution, inoculum 5×10^5 CFU/mL, 18 hours at 35° C.
[2] = broth dilution, 5×10^5 CFU/mL, 18 hours at 35° C.
[3] = strain ATCC 29213, broth dilution, 18 hours at 35° C.
[4] = strain GC 1131, broth dilution, 18 hours at 35° C.
[5] = strain GC 3051, broth dilution, 18 hours at 35° C.
[6] = strain GC 3053, broth dilution, 18 hours at 35° C.
[7] = strain GC 4541, broth dilution, 18 hours at 35° C.
[8] = strain GC 4542, broth dilution, 18 hours at 35° C.
[9] = strain GC 4544, broth dilution, 18 hours at 35° C.
[10] = strain GC 4545, broth dilution, 18 hours at 35° C.
[11] = 5×10^5 CFU/mL, 18 hours at 35° C.

CC(c1ccccc1)C1NC(=O)CNC(=O)C(CO)NC(=O)C(C(O)C2CNC(=N)N2C2OC(CO)C(O)C(O)C2O)NC(=O)C(C(O)C2CNC(=N)N2)NC(=O)C(Cc2ccc(OC3OC(CO)C(OC4OC5COC(c6ccc(-c7ccc(Cl)cc7)cc6)OC5C(O)C4O)C(O)C3O)cc2)NC1=O (stereo not drawn) [Example 178]
8 µg/mL: MIC Staphylococcus aureus (GC 3051) (Staphylococcus sp.; [2]) | MIC Staphylococcus aureus (GC 4541) (Staphylococcus sp.; [2]) | MIC Staphylococcus aureus (GC 4542) (Staphylococcus sp.; [2]) | MIC Staphylococcus aureus (GC 4544) (Staphylococcus sp.; [2]) | MIC Staphylococcus haemolyticus (GC 4546) (Staphylococcus sp.; [2]) | MIC Staphylococcus aureus (GC 3051) (Staphylococcus sp.; [5]) | MIC Staphylococcus aureus (GC 4541) (Staphylococcus sp.; [7]) | MIC Staphylococcus aureus (GC 4542) (Staphylococcus sp.; [8]) | MIC Staphylococcus aureus (GC 4544) (Staphylococcus sp.; [9]) | MIC Enterococcus faecium (GC 4557) (Enterococcus sp.; [1]) | MIC Enterococcus faecium (GC 4557) (Enterococcus sp.; strain GC 4557)
2 µg/mL: MIC Coagulase Negative Staphylococcus (GC 4549) (Staphylococcus sp.; [2]) | MIC Coagulase Negative Staphylococcus (GC 6257) (Staphylococcus sp.; [2]) | MIC Enterococcus faecalis (GC 2242) (Enterococcus sp.; [1]) | MIC Enterococcus faecalis (GC 4553) (Enterococcus sp.; [1]) | MIC Enterococcus faecalis (GC 4554) (Enterococcus sp.; [1]) | MIC Enterococcus faecalis (GC 2242) (Enterococcus sp.; strain GC 2242) | MIC Enterococcus faecalis (GC 4553) (Enterococcus sp.; strain GC 4553) | MIC Enterococcus faecalis (GC 4554) (Enterococcus sp.; strain GC 4554)
1 µg/mL: MIC Enterococcus faecalis (GC 2691) (Enterococcus sp.; [1]) | MIC Enterococcus faecalis (GC 2691) (Enterococcus sp.; strain GC 2691)
>64 µg/mL: MIC Escherichia coli (ATCC 25922) (Escherichia coli; strain ATCC 25922) | MIC Escherichia coli (GC 4559) (Escherichia coli; strain GC 4559)
32 µg/mL: MIC Coagulase Negative Staphylococcus (GC 4547) (Staphylococcus sp.; [2])
4 µg/mL: MIC Coagulase Negative Staphylococcus (GC 4551) (Staphylococcus sp.; [2]) | MIC Staphylococcus aureus (GC 1131) (Staphylococcus sp.; [2]) | MIC Staphylococcus aureus (GC 3053) (Staphylococcus sp.; [2]) | MIC Staphylococcus aureus (GC 4545) (Staphylococcus sp.; [2]) | MIC Staphylococcus aureus-SMITH (GC 4543) (Staphylococcus sp.; [2]) | MIC Staphylococcus aureus (GC 1131) (Staphylococcus sp.; [4]) | MIC Staphylococcus aureus (GC 3053) (Staphylococcus sp.; [6]) | MIC Staphylococcus aureus (GC 4545) (Staphylococcus sp.; [10]) | MIC Enterococcus avium (GC 4558) (Enterococcus sp.; [1]) | MIC Enterococcus faecalis (ATCC 29212) (Enterococcus sp.; [1]) | MIC Enterococcus faecalis (GC 4552) (Enterococcus sp.; [1]) | MIC Enterococcus faecium (GC 2243) (Enterococcus sp.; [1]) | MIC Enterococcus faecium (GC 4556) (Enterococcus sp.; [1]) | MIC Enterococcus faecalis (ATCC 29212) (Enterococcus sp.; strain ATCC 29212) | MIC Enterococcus faecium (GC 2243) (Enterococcus sp.; strain GC 2243) | MIC Enterococcus faecalis (GC 4552) (Enterococcus sp.; strain GC 4552) | MIC Enterococcus faecium (GC 4556) (Enterococcus sp.; strain GC 4556) | MIC Enterococcus avium (GC 4558) (Enterococcus sp.; strain GC 4558)
0.5 µg/mL: MIC Coagulase Negative Staphylococcus (GC 4548) (Staphylococcus sp.; [2]) | MIC Enterococcus faecalis (GC 6189) (Enterococcus sp.; [1]) | MIC Enterococcus faecalis (GC 6189) (Enterococcus sp.; strain GC 6189)
0.12 µg/mL: MIC Streptococcus pyogenes (GC 4563) (Streptococcus sp.; [1]) | MIC Streptococcus pyogenes (GC 4563) (Streptococcus sp.; strain GC 4563)
<0.06 µg/mL: MIC Streptococcus agalactiae (GC 4564) (Streptococcus sp.; [1]) | MIC Streptococcus pneumoniae (ATCC 6301) (Streptococcus sp.; [1]) | MIC Streptococcus pneumoniae (GC 1894) (Streptococcus sp.; [1]) | MIC Streptococcus pneumoniae (GC 4565) (Streptococcus sp.; [1]) | MIC Streptococcus pneumoniae (ATCC 6301) (Streptococcus sp.; strain ATCC 6301) | MIC Streptococcus pneumoniae (GC 1894) (Streptococcus sp.; strain GC 1894) | MIC Streptococcus agalactiae (GC 4564) (Streptococcus sp.; strain GC 4564) | MIC Streptococcus pneumoniae (GC 4565) (Streptococcus sp.; strain GC 4565)
16 µg/mL: MIC Escherichi coli (GC 4560) (Escherichia coli; strain GC 4560) | MIC Staphylococcus aureus (ATCC 29213) (Staphylococcus sp.; [2]) | MIC Staphylococcus aureus (ATCC 29213) (Staphylococcus sp.; [3]) | MIC Enterococcus faecalis (GC 3059) (Enterococcus sp.; [1]) | MIC Enterococcus faecalis (GC 3059) (Enterococcus sp.; strain GC 3059)

CC(c1ccccc1)C1NC(=O)CNC(=O)C(CO)NC(=O)C(C(O)C2CNC(=N)N2C2OC(CO)C(O)C(O)C2O)NC(=O)C(C(O)C2CNC(=N)N2)NC(=O)C(Cc2ccc(OC3OC(CO)C(OC4OC5COC(C67CC8CC(CC(C8)C6)C7)OC5C(O)C4O)C(O)C3O)cc2)NC1=O (stereo not drawn) [Example 127]
2 µg/mL: MIC Coagulase Negative Staphylococcus (GC 4548) (Staphylococcus sp.; [2]) | MIC Coagulase Negative Staphylococcus (GC 4551) (Staphylococcus sp.; [2]) | MIC Staphylococcus aureus-SMITH (GC 4543) (Staphylococcus sp.; [2]) | MIC Staphylococcus haemolyticus (GC 4546) (Staphylococcus sp.; [2]) | MIC Staphylococcus aureus (ATCC 29213) (Staphylococcus sp.; strain ATCC 29213) | MIC Staphylococcus aureus (ATCC 29213) (Staphylococcus sp.; [3]) | MIC Staphylococcus aureus (GC 3051) (Staphylococcus sp.; strain GC 3051) | MIC Staphylococcus aureus (GC 3051) (Staphylococcus sp.; [5]) | MIC Staphylococcus aureus (GC 3053) (Staphylococcus sp.; strain GC 3053) | MIC Staphylococcus aureus (GC 3053) (Staphylococcus sp.; [6]) | MIC Staphylococcus aureus (GC 4542) (Staphylococcus sp.; strain GC 4542) | MIC Staphylococcus aureus (GC 4542) (Staphylococcus sp.; [8]) | MIC Staphylococcus aureus-SMITH (GC 4543) (Staphylococcus sp.; strain GC 4543, broth dilution, 18 hours at 35° C.) | MIC Staphylococcus aureus (GC 4545) (Staphylococcus sp.; strain GC 4545) | MIC Staphylococcus aureus (GC 4545) (Staphylococcus sp.; [10]) | MIC Staphylococcus haemolyticus (GC 4546) (Staphylococcus sp.; strain GC 4546, broth dilution, 18 hours at 35° C.) | MIC Coagulase Negative Staphylococcus (GC 4548) (Staphylococcus sp.; strain GC 4548, broth dilution, 18 hours at 35° C.) | MIC Coagulase Negative Staphylococcus (GC 4551) (Staphylococcus sp.; strain GC 4551, broth dilution, 18 hours at 35° C.) | MIC Enterococccus avium (GC 4558) (Enterococcus sp.; [2]) | MIC Enterococccus faecalis (ATCC 29212) (Enterococcus sp.; [2]) | MIC Enterococccus faecalis (GC 3059) (Enterococcus sp.; [2]) | MIC Enterococccus faecalis (GC 6189) (Enterococcus sp.; [2])
<0.12 µg/mL: MIC Streptococcus agalactiae (GC 4564) (Streptococcus sp.; [2]) | MIC Streptococcus pneumoniae (GC 1894) (Streptococcus sp.; [2]) | MIC Streptococcus pneumoniae (GC 4565) (Streptococcus sp.; [2]) | MIC Streptococcus pneumonine (ATCC 6301) (Streptococcus sp.; [2])
64 µg/mL: MIC Escherichia coli (ATCC 25922) (Escherichia coli; [11]) | MIC Escherichia coli (GC 4559) (Escherichia coli; [11])
0.25 µg/mL: MIC Streptococcus pyogenes (GC 4563) (Streptococcus sp.; [2])
1 µg/mL: MIC Coagulase Negative Staphylococcus (GC 4549) (Staphylococcus sp.; [2]) | MIC Coagulase Negative Staphylococcus (GC 4549) (Staphylococcus sp.; strain GC 4549, broth dilution, 18 hours at 35° C.)
4 µg/mL: MIC Escherichia coli (GC 4560) (Escherichia coli; [11]) | MIC Coagulase Negative Staphylococcus (GC 4547) (Staphylococcus sp.; [2]) | MIC Staphylococcus aureus (GC 1131) (Staphylococcus sp.; strain GC 1131) | MIC Staphylococcus aureus (GC 1131) (Staphylococcus sp.; [4]) | MIC Staphylococcus aureus (GC 4541) (Staphylococcus sp.; strain GC 4541) | MIC Staphylococcus aureus (GC 4541) (Staphylococcus sp.; [7]) | MIC Staphylococcus aureus (GC 4544) (Staphylococcus sp.; strain GC 4544) | MIC Staphylococcus aureus (GC 4544) (Staphylococcus sp.; [9]) | MIC Coagulase Negative Staphylococcus (GC 4547) (Staphylococcus sp.; strain GC 4547, broth dilution, 18 hours at 35° C.) | MIC Enterococccus faecalis (GC 2691) (Enterococcus sp.; [2]) | MIC Enterococccus faecalis (GC 4552) (Enterococcus sp.; [2]) | MIC Enterococccus faecalis (GC 4553) (Enterococcus sp.; [2]) | MIC Enterococccus faecalis (GC 4554) (Enterococcus sp.; [2]) | MIC Enterococccus faecium (GC 2243) (Enterococcus sp.; [2]) | MIC Enterococccus faecium (GC 4556) (Enterococcus sp.; [2]) | MIC Enterococccus faecium (GC 4557) (Enterococcus sp.; [2]) | MIC Enterococcus faecalis (GC 2242) (Enterococcus sp.; [2])
